Here are results for 14 molecules from ChEMBL document CHEMBL4699640, “l-Tryptophan Induces a Marine-Derived Fusarium sp. to Produce Indole Alkaloids with Activity against the Zika Virus” (J Nat Prod, 2020).

One assay relates to Zika virus. Description: Antiviral activity against Zika virus Z16019 infected in human A549 cells assessed as reduction in viral titer preincubated for 1 hr followed by compound washout and subsequent compound addition without virus and measured after 48 hrs by plaque assay. Format: functional, organism-based.
A further assay has as its system A549. Description: Cytotoxicity against human A549 cells assessed as reduction in cell viability by MTT assay. Format: cell-based. (Tetrazolium dyes change colour on reduction, which living cells bring about.)
The next assay has as its system MDA-MB-231. In words: Cytotoxicity against human MDA-MB-231 cells assessed as reduction in cell viability by MTT assay. Format: cell-based.
Setting [1] is: Zika virus, Z16019, A549, read-out: EC50.

The EC50 is the concentration needed to bring the measured effect to its halfway point. Take `CC(C)=C[C@H]1C[C@]2(C)[C@H](CC[C@@]3(C)[C@H]2CC[C@H]2Cc4c([nH]c5ccccc45)[C@@]23C)O1`: in the assay on Zika virus (setting [1]), the EC50 came out at 4.2 µM.

For the molecule `C#C[C@@]1(O)[C@H](O)[C@@H](CO)O[C@H]1n1ccc2c(N)ncnc21`, in the assay with Zika virus (setting [1]), the EC50 was 15 µM.

A word on the IC50: it is the concentration at which inhibition is half-maximal. As to `O=C(c1c[nH]c2ccccc12)c1nccc2c1[nH]c1ccccc12`, in the assay with A549, the IC50 came out at 6.3 µM.

`O=C(C(=O)c1c[nH]c2ccccc12)c1c[nH]c2ccccc12`: in the assay with Zika virus (setting [1]), the EC50 came out at 5 µM.

Consider `O=C1c2ccccc2NC1(c1c[nH]c2ccccc12)c1c[nH]c2ccccc12`, for which the EC50 with Zika virus (setting [1]) was determined as 22 µM.

In the case of `C[S+]([O-])CCC(c1c[nH]c2ccccc12)c1c[nH]c2ccccc12` (stereo unspecified), the EC50 entry with Zika virus (a549) is given as “Not Active”.

In the case of `CC(C)=C[C@H]1C[C@]2(C)[C@H](CC[C@@]3(C)[C@H]2CC[C@H]2CC(=O)c4ccccc4NC(=O)O[C@@]23C)O1`, the concentration for a half-maximal effect (EC50) with Zika virus (setting [1]) was 12 µM.

For `COC(=O)Cc1c(-c2cc3ccccc3[nH]2)[nH]c2ccccc12`, in the assay with Zika virus (setting [1]), the EC50 came out at 50 µM.

Turning to `CC(=O)OCC(=O)O[C@H]1CC[C@@]2(C)[C@@H](CC[C@H]3Cc4c([nH]c5ccccc45)[C@@]32C)[C@]1(C)CCC=C(C)C`, the EC50 with Zika virus (setting [1]) came to 7.5 µM.

As to `Nc1ccccc1CC(c1c[nH]c2ccccc12)c1c[nH]c2ccccc12`, in the assay on Zika virus (a549), the EC50 entry was “Not Active”.

On to `O=C(Cc1c[nH]c2ccccc12)OCCc1c[nH]c2ccccc12`, for which the EC50 in the assay on Zika virus (setting [1]) was 38 µM.

As to `CC(=O)C(C)(c1c[nH]c2ccccc12)c1c[nH]c2ccccc12`, the EC50 with Zika virus (setting [1]) was determined as 18 µM.

For `CC(C)=C[C@H]1C[C@]2(C)[C@H](CC[C@@]3(C)[C@H]2CC[C@H]2CC(=O)c4ccccc4NC(=O)[C@@]23C)O1` [ASPORYZIN A], the EC50 in the assay with Zika virus (setting [1]) was 18 µM.

As for `CC(C)=CCC[C@]1(C)[C@@H](O)CC[C@@]2(C)[C@H]1CC[C@H]1Cc3c([nH]c4ccccc34)[C@@]12C` [EMINDOLE SB], the IC50 in the assay with MDA-MB-231 was 3.2 µM; in the assay on A549, 4.4 µM. In addition, the EC50 entry with Zika virus (a549) was “Not Active”.
